Our source for the IC50 values is PMC8231118, “Evaluating the Antioxidants, Whitening and Antiaging Properties of Rice Protein Hydrolysates” (Molecules, 2021).

The assay has as its target T1, mushroom tyrosinase.
T1 construct: gene PPO3
As to the kind of experiment: dopachrome absorbance at […] nm. To be noted: L-DOPA substrate (1.25 mM solution), 20 mM phosphate pH 6.8, 37 °C, 30 min. It is filed as biochemical.

Molecules are shown by their SMILES. Values after ≈ are worked out from the molar mass of the structure shown.

Turning to `O=C1O[C@H]([C@@H](O)CO)C(O)=C1O` [ascorbic acid], the IC50 (in general, the concentration needed to halve the response being measured) was 98 µg/mL (≈ 556 µM).
